# Source: patent US20190352610A1, “METHODS OF GENERATING HEPATIC MACROPHAGES AND USES THEREOF” (AGENCY FOR SCIENCE, TECHNOLOGY AND RESEARCH, priority 2017, published 2019)
# Columns and labels:
# [1] = tested on: NL-Mφ (non-liver macrophages); assay: cytokine production (ELISA) and morphology upon LPS activation, NL-Mφ; format: cell-based, human
# Protocol: (§1) FIG. 3A are phase contrast images showing morphological changes in hPSC-KCs (upper panel) and NL-Mφ (lower panel) following LPS treatment. Scale bar: 100 μm. […] Supernatant from cell cultures were collected 16 hours after LPS treatment and cytokine production was measured using ELISA. IL-6 and TNF4α (after LPS treatment) production was not detected in PHHs. TNF4α production was not detected in NL-Mφ before LPS treatment. Data are presented after normalization to cell numbers and the bars represent mean±s.d. (n=3). Dashed lines represent fold differences between cytokine production before and after LPS treatment (folds are indicated on top of the dashed lines). Solid lines represent p<0.05 (two-tailed paired t-test). […] No significant differences were observed between IL-6 levels in hPSC-KCs and PHKCs in terms of basal levels (no LPS treatment) and LPS-induced levels. The fold increase in TNF4α production in hPSC-KCs (33 fold) was similar to the fold increase in PHKCs (35 fold). […] It has been reported that Kupffer cells show a lower extent of cytokine production upon cytokine stimulation.
# (§2) For activation of hPSC-KCs to examine cytokine production, lipopolysaccharide (LPS) was added to the culture medium during the last 16 hours of culture. Medium was collected at the end of the incubation period and morphological changes and cytokine production upon LPS activation was analyzed. […]
# [2] = tested on: primary human hepatocytes (PHHs); assay: cytokine production (ELISA) upon LPS activation, PHHs; format: cell-based
# Protocol: as §1, §2
# hPSC-KCs = assay: cytokine production (ELISA) and morphology upon LPS activation, hPSC-KCs; format: cell-based, human
# Protocol: as §1
# For activation of hPSC-KCs to examine cytokine production, lipopolysaccharide (LPS) was added to the culture medium during the last 16 hours of culture. Medium was collected at the end of the incubation period and morphological changes and cytokine production upon LPS activation was analyzed. […] The fold increase in TNF4α production in hPSC-KCs (33 fold) was similar to the fold increase in PHKCs (35 fold) (FIG. 3C).
# [3] = tested on: PHKCs (primary human Kupffer cells); assay: cytokine production (ELISA) upon LPS activation, PHKCs; format: cell-based; conditions: LPS during last 16 hours of culture
# Protocol: as §1, §2
# [4] = tested on: PHHs-hPSC-KCs co-cultures; assay: Alamar Blue cell viability, PHHs-hPSC-KCs co-cultures; format: cell-based, human; conditions: 24 hours treatment, PHHs-hPSC-KCs co-cultures vs PHHs monocultures, FIG. 5B
# Protocol: (§3) PHHs monocultures, PHHs-PHKCs co-cultures (FIG. 5A), PHHs-hPSC-KCs co-cultures (FIG. 5B) and PHHs-hPSC-Mac co-cultures (FIG. 5C) treated with LPS (solid lines) or left untreated (dashed lines) were exposed to Acetaminophen (APAP) 16 hours after LPS treatment. 24 hours after addition of the drug, cell viability was assayed using Alamar Blue. Cell viability is expressed as percentage of viable cells compared to vehicle control (DMSO). Data are presented as mean±s.d (n=3). * indicates statistically significant differences between LPS-activated monoculture and co-culture; # indicate statistically significant differences between non-activated monoculture and co-culture (p<0.05).
# (§4) Previous reports have shown the suppression of CYP expression and activity in human and rat hepatocytes when co-cultured with Kupffer cells. […] Therefore, it was analyzed if differences could be identified between PHHs-PHKCs co-cultures and PHHs monocultures in toxicity responses to paradigm hepatotoxicants, and if this difference could be recapitulated in PHHs-hPSC-KCs or PHHs-hPSC-Mac co-cultures. The monocultures and co-cultures were treated with the paradigm hepatotoxicant acetaminophen for 24 hours, and cell viability was measured using Alamar Blue assay. Cell viability was quantified as percentage of […] compared to vehicle control (DMSO).
# PHHs-NL-Mφ co-cultures = assay: Alamar Blue cell viability, PHHs-NL-Mφ co-cultures; format: cell-based, human; conditions: 24 hours treatment, PHHs-NL-Mφ co-cultures vs PHHs monocultures, FIG. 5C
# Protocol: as §3, §4
# PHHs-PHKCs co-cultures = assay: Alamar Blue cell viability, PHHs-PHKCs co-cultures; format: cell-based, human; conditions: 24 hours treatment, PHHs-PHKCs co-cultures vs PHHs monocultures, FIG. 5A
# Protocol: as §3, §4
molecule,measurement,setting,value
lipopolysaccharide [LPS],"levels of cytokines (IL-6, TNF4α)","[1]; NL-Mφ compared to PHKCs and hPSC-KCs, FIG. 3B and 3C",much higher levels
same,morphological changes,"[1]; NL-Mφ, LPS activation, FIG. 3A",from round to flat and spread cells
same,IL-6 production,[2]; FIG. 3B,below detectable levels
same,TNF4α production,[2]; upon LPS activation,below detectable levels
same,morphological changes,"hPSC-KCs; LPS activation, FIG. 3A",from round to flat and spread cells
same,fold induction of IL-6 production,"hPSC-KCs; LPS during last 16 hours of culture, FIG. 3B",in the same range as that of the PHKCs
same,fold increase in TNF4α production,"hPSC-KCs; LPS during last 16 hours of culture, FIG. 3C",33 fold
same,fold induction of IL-6 production,[3]; FIG. 3B,25 fold
same,fold increase in TNF4α production,[3]; FIG. 3C,35 fold
CC(=O)Nc1ccc(O)cc1 [acetaminophen],cell death compared to monoculture controls,[4],higher cell death
same,cell death compared to PHHs monocultures,PHHs-NL-Mφ co-cultures,No difference in cell death
same,cell death compared to monoculture controls,PHHs-PHKCs co-cultures,higher cell death
